Data: patent US20120214822A1 (ASTRAZENECA AB, priority 2007, published 2012)

Target: human active recombinant p38α-6His tagged (Homo sapiens, UniProt Q16539)
Assay: P38 Alpha Enzyme Assay (AlphaScreen, biotinylated-ATF2 substrate);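 further: 0.5 nM final p38α, reaction started with ATP and run 45 min at 37 °C, phospho-ATF2 read by antibody-based AlphaScreen, background wells quenched with EDTA before ATP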
Type: biochemical
Conditions: p38 alpha enzyme inhibition; means of replicate determinations; 4 h pre-incubation at 37° C.; SD of assay 0.2-0.3 log units

Sequence of human active recombinant p38α-6His tagged (Q16539 whole entry): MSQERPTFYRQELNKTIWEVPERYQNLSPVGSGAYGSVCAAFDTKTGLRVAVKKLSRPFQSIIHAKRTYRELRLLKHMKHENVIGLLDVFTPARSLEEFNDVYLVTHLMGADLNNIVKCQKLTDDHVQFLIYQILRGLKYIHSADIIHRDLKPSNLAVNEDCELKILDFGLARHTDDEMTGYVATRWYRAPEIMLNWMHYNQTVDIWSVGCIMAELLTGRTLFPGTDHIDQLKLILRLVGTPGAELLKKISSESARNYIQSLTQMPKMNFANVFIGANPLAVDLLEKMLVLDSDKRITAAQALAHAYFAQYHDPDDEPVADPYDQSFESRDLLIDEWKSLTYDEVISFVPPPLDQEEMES

SMILES	pIC50
C[C@@H](O)CNCCOc1ccccc1C(C)(C)Nc1nccn(-c2cc(C(=O)NC3CC3)ccc2Cl)c1=O [Example 332, 4-Chloro-N-cyclopropyl-3-[3-({1-[2-(2-{[(2R)-2-hydroxypropyl]amino}ethoxy)phenyl]-1-methylethyl}amino)-2-oxopyrazin-1(2H)-yl]benzamide]	9.7
Cc1ccc(C(=O)NC2CC2)cc1-n1ccnc(NCc2cccc(C)c2C)c1=O [Example 92, N-Cyclopropyl-3-[3-[[(2,3-dimethylphenyl)methyl]amino]-2-oxo-1(2H)-pyrazinyl]-4-methyl-benzamide]	7.6
CC(C)(Nc1nccn(-c2cc(C(=O)NC3CC3)ccc2Cl)c1=O)c1ccccc1OCCNCCO [Example 331, 4-Chloro-N-cyclopropyl-3-[3-{[1-(2-{2-[(2-hydroxyethyl)amino]ethoxy}phenyl)-1-methylethyl]amino}-2-oxopyrazin-1(2H)-yl]benzamide]	9.6
Cc1ccc(C(=O)NC2CC2)cc1-n1ccnc(NC2(c3ccccc3OCCNCCCO)CC2)c1=O [Example 250, N-Cyclopropyl-3-[3-[[1-[2-[2-[(3-hydroxypropyl)amino]ethoxy]phenyl]cyclopropyl]amino]-2-oxo-1(2H)-pyrazinyl]-4-methyl-benzamide]	9.7
Cc1ccc(C(=O)NC2CC2)cc1-n1ccnc(N[C@@H](c2ccccc2)[C@@H](C)CN2CCC(CO)CC2)c1=O [Example 151, N-Cyclopropyl-3-[3-[[(1R,2S)-3-[4-(hydroxymethyl)-1-piperidinyl]-2-methyl-1-phenylpropyl]amino]-2-oxo-1(2H)-pyrazinyl]-4-methyl-benzamide]	9.1
Cc1ccc(C(=O)NC2CC2)cc1-n1ccnc(NC2(c3ccccc3OCCNCCO)CC2)c1=O [Example 233, N-Cyclopropyl-3-[3-[[1-[2-[2-[(2-hydroxyethyl)amino]ethoxy]phenyl]cyclopropyl]amino]-2-oxo-1(2H)-pyrazinyl]-4-methyl-benzamide]	9.9
Cc1ccc(C(=O)NC2CC2)cc1-n1ccnc(NCC(c2ccccc2)N2CCCC2)c1=O (centres unmarked) [Example 63, N-Cyclopropyl-4-methyl-3-[2-oxo-3-[[2-phenyl-2-(1-pyrrolidinyl)ethyl]amino]-1(2H)-pyrazinyl]-benzamide]	6.3
Cc1ccc(C(=O)NC2CC2)cc1-n1ccnc(NCc2cccnc2)c1=O [Example 24, N-Cyclopropyl-4-methyl-3-[2-oxo-3-[(3-pyridinylmethyl)amino]-1(2H)-pyrazinyl]-benzamide]	6.3
Cc1ccc(C(=O)NC2CC2)cc1-n1ccnc(NC(C)(C)c2ccccc2OC[C@H](N)CO)c1=O [Example 305, 3-[3-{[1-(2-{[(2R)-2-Amino-3-hydroxypropyl]oxy}phenyl)-1-methylethyl]amino}-2-oxopyrazin-1(2H)-yl]-N-cyclopropyl-4-methylbenzamide]	9.9
Cc1ccc(C(=O)NC2CC2)cc1-n1ccnc(NCCc2ccc(OCCN3CCCC3)cc2)c1=O [Example 133, N-Cyclopropyl-4-methyl-3-[2-oxo-3-[[2-[4-[2-(1-pyrrolidinyl)ethoxy]phenyl]ethyl]amino]-1(2H)-pyrazinyl]-benzamide]	6.8
Cc1ccc(C(=O)NC2CC2)cc1-n1ccnc(NCCN(C)C)c1=O [Example 5, N-Cyclopropyl-3-[3-[[2-(dimethylamino)ethyl]amino]-2-oxo-1(2H)-pyrazinyl]-4-methyl-benzamide]	5.9
Cc1ccc(C(=O)NC2CC2)cc1-n1ccnc(NCCCN2CCN(C)CC2)c1=O [Example 4, N-Cyclopropyl-4-methyl-3-[3-[[3-(4-methyl-1-piperazinyl)propyl]amino]-2-oxo-1(2H)-pyrazinyl]-benzamide]	6.1
Cc1ccc(C(=O)NC2CC2)cc1-n1ccnc(NCC(c2ccccc2)N(C)C)c1=O (centres unmarked) [Example 61, N-Cyclopropyl-3-[3-[[2-(dimethylamino)-2-phenylethyl]amino]-2-oxo-1(2H)-pyrazinyl]-4-methyl-benzamide]	6.3
Cc1ccc(C(=O)NC2CC2)cc1-n1ccnc(N[C@@H](c2ccccc2)[C@@H](C)CNC2CCNCC2)c1=O [Example 195, N-Cyclopropyl-4-methyl-3-[3-[[(1R,2S)-2-methyl-1-phenyl-3-(4-piperidinylamino)propyl]amino]-2-oxo-1(2H)-pyrazinyl]-benzamide]	8.8
Cc1ccc(C(=O)NC2CC2)cc1-n1ccnc(NC(C)(C)c2ccccc2OCCNC[C@H](C)O)c1=O [Example 213, N-Cyclopropyl-3-[3-[[1-[2-[2-[[(2S)-2-hydroxypropyl]amino]ethoxy]phenyl]-1-methylethyl]amino]-2-oxo-1(2H)-pyrazinyl]-4-methyl-6-benzamide]	9.9
Cc1ccc(C(=O)NC2CC2)cc1-n1ccnc(N[C@@H](c2ccccc2)[C@@H](C)CN2CCN(C(C)C)CC2)c1=O [Example 171, N-Cyclopropyl-4-methyl-3-[3-[[(1R,2S)-2-methyl-3-[4-(1-methylethyl)-1-piperazinyl]-1-phenylpropyl]amino]-2-oxo-1(2H)-pyrazinyl]-benzamide]	8.8

SMILES	pIC50
CCN(CC)C[C@H](C)[C@@H](Nc1nccn(-c2cc(C(=O)NC3CC3)ccc2C)c1=O)c1ccccc1 [Example 146, N-cyclopropyl-3-[3-[[(1R,2S)-3-(diethylamino)-2-methyl-1-phenylpropyl]amino]-2-oxo-1(2H)-pyrazinyl]-4-methyl-benzamide]	8.9
Cc1ccccc1[C@H](Nc1nccn(-c2cc(C(=O)NC3CC3)ccc2C)c1=O)[C@@H](C)CO [Example 272, N-Cyclopropyl-3-[3-[[(1R,2R)-3-hydroxy-1-(2-methylphenyl)-2-methylpropyl]amino]-2-oxo-1(2H)-pyrazinyl]-4-methyl-benzamide]	8.5
Cc1ccc(C(=O)NC2CC2)cc1-n1ccnc(NCc2cccc(CN)c2)c1=O [Example 124, 3-[3-[[[3-(Aminomethyl)phenyl]methyl]amino]-2-oxo-1(2H)-pyrazinyl]-N-cyclopropyl-4-methyl-benzamide]	6.9
Cc1ccc(C(=O)NC2CC2)cc1-n1cc(CN(C)C)nc(NCc2ccccc2)c1=O [Example 105, N-Cyclopropyl-3-[5-[(dimethylamino)methyl]-2-oxo-3-[(phenylmethyl)amino]-1(2H)-pyrazinyl]-4-methyl-benzamide]	6.2
CNCCOc1ccccc1C(C)(C)Nc1nccn(-c2cc(C(=O)N3CCC3)ccc2C)c1=O [Example 221, 1-[4-Methyl-3-[3-[[1-methyl-1-[2-[2-(methylamino)ethoxy]phenyl]ethyl]amino]-2-oxo-1(2H)-pyrazinyl]benzoyl]-azetidine]	6.7
Cc1ccc(C(=O)NC2CC2)cc1-n1cc(Cl)nc(NCCc2ccccc2)c1=O [Example 110, 3-[5-Chloro-2-oxo-3-[(2-phenylethyl)amino]-1(2H)-pyrazinyl]-N-cyclopropyl-4-methyl-benzamide]	6.7
CCC(C)NCCOc1ccccc1C1(Nc2nccn(-c3cc(C(=O)NC4CC4)ccc3C)c2=O)CC1 (centres unmarked) [Example 246, N-Cyclopropyl-4-methyl-3-[3-[[1-[2-[2-[(1-methylpropyl)amino]ethoxy]phenyl]cyclopropyl]amino]-2-oxo-1(2H)-pyrazinyl]-benzamide]	9.8
Cc1c(F)cc(C(=O)NC2CC2)cc1-n1ccnc(NC(C)(C)c2ccccc2SCCNCCO)c1=O [Example 322, N-Cyclopropyl-3-fluoro-5-[3-({1-[2-({2-[(2-hydroxyethyl)amino]ethyl}sulfanyl)phenyl]-1-methylethyl}amino)-2-oxopyrazin-1(2H)-yl]-4-methylbenzamide]	9.8
Cc1ccc(C(=O)NC2CC2)cc1-n1ccnc(NC[C@H](C)c2ccccc2)c1=O [Example 57, N-Cyclopropyl-4-methyl-3-[2-oxo-3-[[(2R)-2-phenylpropyl]amino]-1(2H)-pyrazinyl]-benzamide]	7.1
COC[C@@H]1CCCN1C[C@@H](C)[C@@H](Nc1nccn(-c2cc(C(=O)NC3CC3)ccc2C)c1=O)c1ccccc1 [Example 150, N-Cyclopropyl-3-[3-[[(1R,2R)-3-[(2S)-2-(methoxymethyl)-1-pyrrolidinyl]-2-methyl-1-phenylpropyl]amino]-2-oxo-1(2H)-pyrazinyl]-4-methyl-benzamide]	7.9
Cc1ccc(C(=O)NC2CC2)cc1-n1ccnc(NC[C@@H](C)c2ccccc2)c1=O [Example 58, N-Cyclopropyl-4-methyl-3-[2-oxo-3-[[(2S)-2-phenylpropyl]amino]-1(2H)-pyrazinyl]-benzamide]	7
CNC[C@@H](O)COc1ccccc1C(C)(C)Nc1nccn(-c2cc(C(=O)NC3CC3)cc(F)c2C)c1=O [Example 307, N-Cyclopropyl-3-fluoro-5-[3-{[1-(2-{[(2R)-2-hydroxy-3-(methylamino)propyl]oxy}phenyl)-1-methylethyl]amino}-2-oxopyrazin-1(2H)-yl]-4-methylbenzamide]	10.3
Cc1ccc(C(=O)NC2CC2)cc1-n1ccnc(N[C@@H]2CCc3ccccc32)c1=O [Example 17, N-Cyclopropyl-3-[3-[[(1R)-2,3-dihydro-1H-inden-1-yl]amino]-2-oxo-1(2H)-pyrazinyl]-4-methyl-benzamide]	6.6
Cc1ccc(C(=O)NC2CC2)cc1-n1ccnc(NCc2ccc(S(C)(=O)=O)cc2)c1=O [Example 25, N-Cyclopropyl-4-methyl-3-[3-[[[4-(methylsulfonyl)phenyl]methyl]amino]-2-oxo-1(2H)-pyrazinyl]-benzamide]	5.5
Cc1cccc(CNc2nccn(-c3cc(C(=O)NC4CC4)ccc3C)c2=O)c1 [Example 46, N-Cyclopropyl-4-methyl-3-[3-[[(3-methylphenyl)methyl]amino]-2-oxo-1(2H)-pyrazinyl]-benzamide]	8
Cc1ccc(C(=O)NC2CC2)cc1-n1ccnc(NC2(c3ccccc3OCCNC[C@H](C)O)CC2)c1=O [Example 230, N-Cyclopropyl-3-[3-[[1-[2-[2-[[(2S)-2-hydroxypropyl]amino]ethoxy]phenyl]cyclopropyl]amino]-2-oxo-1(2H)-pyrazinyl]-4-methyl-benzamide]	10
